In article PMC6949950, “Screening Mold Colonies by Using Two Toxicity Assays Revealed Indoor Strains of Aspergillus calidoustus Producing Ophiobolins G and K” (Toxins, 2019):
≈ marks a conversion by molar mass, not a printed value. Like-named read-outs stand apart in the source and are kept apart here.

Legend:
[1] = system: boar spermatozoa; assay: cells; assay type: cell-based; details: for EC50: Spermatozoa
[2] = system: boar spermatozoa; assay: cells; assay type: cell-based; details: for EC50: Spermatozoa, 24 h, read-out: EC50 SMID 1 day
[3] = system: porcine kidney PK-15 cells; assay: cells; assay type: cell-based; details: for EC50: Sus scrofa, read-out: EC50 ICP 2 days
[4] = system: M. circinelloides; design: method as in doi:10.1211/146080800128736312, PMID 21054501, PMID 22130129, PMID 23538442; details: cited from earlier work
[5] = boar sperm, exposure 0.5–1 h, twofold dilutions, three measurements within one dilution step, read-out: EC50 BSMI 0.5–1 h
[6] = boar sperm, exposure 1–2 days, twofold dilutions, read-out: EC50 BSMI 1–2 days
[7] = boar sperm, exposure 1 day, SD between three measurements < ± 35%
[8] = PK-15, 48 h, PK-15 cells, exposure 2 days, SD between three measurements < ± 35%
[9] = PK-15 cells, exposure 2 days, SD between three measurements < ± 35%
[10] = boar sperm, exposure 0.5–1 h, twofold dilutions, three measurements within one dilution step
[11] = boar sperm, exposure 1–2 days, twofold dilutions

Compound: CC1(C)C=Cc2c(ccc3c2[N+]([O-])=C2C3=C[C@@]34NC(=O)[C@]5(CCCN5C3=O)C[C@H]4C2(C)C)O1 [Avrainvillamide]
- EC50 [1, 5]: 0.6 µg/mL (≈ 1.35 µM)
- EC50 [1, 6]: 0.3 µg/mL (≈ 0.673 µM)
- EC50 [2, 7]: > 2 µg/mL
- EC50 [3, 8]: 0.3 µg/mL (≈ 0.673 µM)

Compound: C[C@@H]1Cc2c(Cl)cc(C(=O)N[C@@H](Cc3ccccc3)C(=O)O)c(O)c2C(=O)O1 [Ochratoxin A]
- EC50 [1, 5]: > 100 µg/mL
- EC50 [1, 6]: > 50 µg/mL
- EC50 [2, 7]: > 50 µg/mL
- EC50 ([3]; 48 h, PK-15 cells, exposure 2 days, SD between three measurements < ± 35%): > 50 µg/mL

Compound: CC(C)=C[C@H]1C[C@H](C)[C@]2(CC[C@]3(C)C[C@H]4[C@H](C(=O)C[C@@]4(C)O)/C(C=O)=C\C[C@H]32)O1 [Ophiobolin A]
- EC50 [1, 5]: 2.5 µg/mL (≈ 6.24 µM)
- EC50 [1, 6]: 0.25 µg/mL (≈ 0.624 µM)
- EC50 [2, 7]: 2 µg/mL (≈ 4.99 µM)
- EC50 ICP 2 days [3, 9]: 0.2 µg/mL (≈ 0.499 µM)
- treatment concentration at which apoptosis-like cell death process was observed [4]: 1.6 µg/mL

Compound: CC1(C)C=Cc2c(ccc3c2[N+]([O-])=C2C(C)(C)[C@@H]4CC56CCCN5C(=O)[C@]4(NC6=O)[C@H]4N5C(=O)[C@@]67CCCN6C(=O)[C@@]56[C@H](c5c(n(O)c8c9c(ccc58)OC(C)(C)C=C9)C(C)(C)[C@@H]6C7)[C@]234)O1 [Stephacidin B]
- EC50 BSMI 0.5–1 h [1, 10]: 0.5 µg/mL (≈ 0.561 µM)
- EC50 BSMI 1–2 days [1, 11]: 0.2 µg/mL (≈ 0.224 µM)
- EC50 SMID 1 day [2, 7]: >2 µg/mL
- EC50 ICP 2 days [3, 9]: 0.2 µg/mL (≈ 0.224 µM)

Compound: COc1cc2c(c3oc4cccc(O)c4c(=O)c13)[C@@H]1C=CO[C@@H]1O2 [Sterigmatocystin]
- EC50 BSMI 0.5–1 h [1]: >100 µg/mL
- EC50 BSMI 1–2 days [1]: >20 µg/mL
- EC50 SMID 1 day [2]: >20 µg/mL
- EC50 ICP 2 days [3]: 0.25 µg/mL (≈ 0.771 µM)
- toxicity to proliferating PK-15 cells in the ICP assay [3]: highly toxic

Compound: Oc1cc(Cl)ccc1Oc1ccc(Cl)cc1Cl [triclosan]
- EC50 [2, 7]: 2 µg/mL (≈ 6.91 µM)
- EC50 [3, 8]: 9.4 µg/mL (≈ 32.5 µM)

Compound: Alamethicin
- EC50 BSMI 0.5–1 h [1, 10]: 5 µg/mL
- EC50 BSMI 1–2 days [1, 11]: 0.2 µg/mL
- EC50 SMID 1 day [2, 7]: 0.2 µg/mL
- EC50 ICP 2 days [3, 9]: 8 µg/mL
